Test results from patent US20210395239A1 (Hoffmann-La Roche Inc., priority 2018, published 2021).

Columns and labels:
hERG channel = target: T1, hERG channel (Homo sapiens, UniProt Q12809); experiment: hERG channel inhibition assay (patch-clamp, CHOhERG cells); format: cell-based; details: for IC20: human, CHO cells stably expressing hERG (CHOhERG); for IC20 / IC50: patch-clamp, CHOhERG cells; for hERG IC20/TLR7 IC50 / hERG IC20/TLR8 IC50 / hERG IC20/TLR9 IC50: safety ratio
T1 construct: expressed in transfected cells; host or cells: CHO (Chinese hamster ovary)
Method in brief: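 Whole-cell voltage-clamp recordings used CHO cells stably expressing human hERG, with IKhERG evoked by a voltage protocol at 0.1 Hz. Increasing compound concentrations were applied, each for 3–10 min to reach steady state, and current amplitude and kinetics were expressed relative to control (100%).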

CYP2D6 = target: T2, CYP2D6 (Homo sapiens, UniProt P10635); experiment: CYP inhibition assay in human liver microsome, CYP2D6; format: in vitro ADME; details: human, human liver microsomes, probe dextromethorphan 5 μM, substrate dextromethorphan 5 μM, second value of 2C9/2D6/3A4
T2 construct: tissue BD-Gentest 452117; host or cells: human liver microsomes
Description: This is a high throughput screening assay used for assessment of reversible inhibition of CYP2C9, CYP2D6, and CYP3A4 activity of test compounds in human liver microsome (HLM) in early discovery stage.
10 mM DMSO stock solutions of test compounds were diluted in DMSO to generate 2 mM intermediate stock solution. 250 nL, of intermediate stock solution were transferred in duplicate into 3 separate 384 well microtitre plates (assay-ready plates). A mixture of HLM and each substrate was made up. 45 μL of HLM substrate mix was then transferred to each well of an assay ready plate and mixed. The negative (solvent) and positive controls (standard inhibitor for each CYP) were included in each assay ready plate. The assay ready plate was warmed to 37° C. in an incubator over 10 minutes. 5 μL pre-warmed NADPH regenerating system was added to each incubation well to start the reaction. Final incubation volume was 50 μL. The assay plate then was placed back in the 37° C. incubator. After incubation (10 minutes for CYP2D6) for 5 minutes, incubates were quenched by addition of 50 μL 100% acetonitrile containing internal standards (400 ng/mL 13C6-4′-OH-Diclofenac, 20 ng/mL D3-Dextrorphan and 20 ng/mL D4-1′OH-Midazolam). The supernatants were collected for RapidFire/MS/MS analysis.
RapidFire online solid phase extraction/sample injection system (Agilent) coupled with API4000 triple quadrupole mass spectrometer (AB Sciex) were used for sample analysis. The mobile phase composed of acetonitrile and water supplemented with 0.1% formic acid. A C4 solid phase extraction cartridge is used for sample separation. MS detection is achieved in positive ion MRM mode.
Peak areas for substrate, metabolite and internal standard are determined using the RapidFire integrator software (version 3.6.12009.12296). Peak area ratios (PAR) of metabolite and internal standard (stable-labelled metabolite) are then calculated. The measurement window for each experiment is then defined:
PAR (0% activity)=average PAR for all incubations containing concentrated inhibitor; Par (100% activity)=average PAR for all incubations containing no inhibitor (DMSO controls); % Activity (test inhibitor)=[PAR (test inhibitor)−PAR (0% activity)]/[PAR (100% activity)−PAR (0% activity)]; % Inhibition (test inhibitor)=100-% Activity (test inhibitor).

T1 sequence (Q12809 whole entry): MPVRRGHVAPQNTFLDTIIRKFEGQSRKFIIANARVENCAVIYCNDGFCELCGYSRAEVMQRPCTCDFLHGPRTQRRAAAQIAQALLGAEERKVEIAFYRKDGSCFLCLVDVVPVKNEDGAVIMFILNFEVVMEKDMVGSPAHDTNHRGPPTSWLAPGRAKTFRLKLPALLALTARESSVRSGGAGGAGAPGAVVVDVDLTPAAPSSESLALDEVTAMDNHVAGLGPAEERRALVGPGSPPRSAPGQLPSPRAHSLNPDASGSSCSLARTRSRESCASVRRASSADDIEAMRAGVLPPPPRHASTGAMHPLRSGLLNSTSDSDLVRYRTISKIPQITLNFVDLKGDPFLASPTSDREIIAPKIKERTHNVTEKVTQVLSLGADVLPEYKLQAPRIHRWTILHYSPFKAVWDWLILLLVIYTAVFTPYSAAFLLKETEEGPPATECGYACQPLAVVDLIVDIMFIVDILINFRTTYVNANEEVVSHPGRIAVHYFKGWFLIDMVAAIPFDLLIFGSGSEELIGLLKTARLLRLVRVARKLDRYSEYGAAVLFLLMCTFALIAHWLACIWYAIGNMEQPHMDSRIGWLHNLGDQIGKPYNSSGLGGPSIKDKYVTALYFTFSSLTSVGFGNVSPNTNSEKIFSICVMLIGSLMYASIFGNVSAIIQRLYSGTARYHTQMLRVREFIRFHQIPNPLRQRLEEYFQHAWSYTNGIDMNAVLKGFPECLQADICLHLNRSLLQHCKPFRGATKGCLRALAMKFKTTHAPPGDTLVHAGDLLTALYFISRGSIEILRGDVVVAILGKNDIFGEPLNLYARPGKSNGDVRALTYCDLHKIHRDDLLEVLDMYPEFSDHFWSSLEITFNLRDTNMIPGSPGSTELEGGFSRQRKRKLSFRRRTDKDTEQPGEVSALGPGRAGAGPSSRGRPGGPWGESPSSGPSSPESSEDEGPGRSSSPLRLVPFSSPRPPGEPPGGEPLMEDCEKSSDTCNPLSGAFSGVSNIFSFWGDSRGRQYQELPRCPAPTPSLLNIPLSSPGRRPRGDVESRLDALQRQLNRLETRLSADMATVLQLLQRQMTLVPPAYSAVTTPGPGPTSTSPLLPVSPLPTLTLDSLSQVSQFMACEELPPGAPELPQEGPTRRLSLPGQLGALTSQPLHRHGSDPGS
T2 sequence (P10635 whole entry): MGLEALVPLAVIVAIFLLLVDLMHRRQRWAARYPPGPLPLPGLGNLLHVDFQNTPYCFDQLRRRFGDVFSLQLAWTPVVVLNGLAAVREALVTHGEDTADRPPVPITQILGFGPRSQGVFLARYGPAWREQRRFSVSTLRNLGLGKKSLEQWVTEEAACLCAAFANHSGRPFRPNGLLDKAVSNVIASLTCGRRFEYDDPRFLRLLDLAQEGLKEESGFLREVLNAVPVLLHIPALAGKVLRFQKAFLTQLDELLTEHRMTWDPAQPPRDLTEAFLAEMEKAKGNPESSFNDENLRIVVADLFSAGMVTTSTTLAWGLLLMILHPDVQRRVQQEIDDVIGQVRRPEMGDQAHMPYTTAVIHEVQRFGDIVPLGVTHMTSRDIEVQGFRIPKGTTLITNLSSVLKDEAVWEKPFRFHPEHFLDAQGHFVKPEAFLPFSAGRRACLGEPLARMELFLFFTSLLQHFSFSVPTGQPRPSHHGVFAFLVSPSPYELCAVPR

Structure (SMILES)	IC20 (hERG channel) [µM]	IC50 (hERG channel) [µM]	hERG IC20/TLR7 IC50 (hERG channel)	hERG IC20/TLR8 IC50 (hERG channel)	hERG IC20/TLR9 IC50 (hERG channel)	inhibition at 10 min, 10 µM (CYP2D6) [%]
CO[C@H]1CN(c2cc(C)nc(N3CCN(C[C@H]4CN(c5ccc(C#N)c6nccnc56)C[C@@H](C)O4)CC3)n2)C[C@@H]1N [Example 104, 8-[(2S,6R)-2-[[4-[4-[(3S,4S)-3-amino-4-methoxy-pyrrolidin-1-yl]-6-methyl-pyrimidin-2-yl]piperazin-1-yl]methyl]-6-methyl-morpholin-4-yl]quinoxaline-5-carbonitrile]	> 10	> 20	>454	>10000	>142	15
Cc1cc(N2CCNCC2)nc(N2CCN(C[C@H]3CN(c4ccc(C#N)c5nccnc45)C[C@@H](C)O3)CC2)n1 [Example 114, 8-[(2R,6S)-2-methyl-6-[[4-(4-methyl-6-piperazin-1-yl-pyrimidin-2-yl)piperazin-1-yl]methyl]morpholin-4-yl]quinoxaline-5-carbonitrile]	> 10	> 20	>3333	>10000	>161	32
[2H]c1nc2c(C#N)ccc(N3C[C@H](CN4CCN(c5nc(C)cc(N6CC(N)C6)n5)CC4)O[C@H](C)C3)c2nc1[2H] [Example 124, 8-[(2S,6R)-2-[[4-[4-(3-aminoazetidin-1-yl)-6-methyl-pyrimidin-2-yl]piperazin-1-yl]methyl]-6-methyl-morpholin-4-yl]-2,3-dideuterio-quinoxaline-5-carbonitrile]	> 10	> 20	>2000	>10000	>322	9.5
[2H]c1ccc2c(N3C[C@H](CN4CCN(c5ccc(N6CC(C)(N)C6)nc5)CC4)O[C@H](C)C3)ccc(C#N)c2n1 [Example 132, 5-[(2S,6R)-2-[[4-[6-(3-amino-3-methyl-azetidin-1-yl)-3-pyridyl]piperazin-1-yl]methyl]-6-methyl-morpholin-4-yl]-2-deuterio-quinoline-8-carbonitrile]	> 10	> 20	>434	>625	>71	-2.5
[2H]c1ccc2c(N3C[C@H](CN4CCN(c5ccc(N6C[C@@H](N)[C@H](OC)C6)nc5)CC4)O[C@H](C)C3)ccc(C#N)c2n1 [Example 143, 5-[(2S,6R)-2-[[4-[6-[(3R,4R)-3-amino-4-methoxy-pyrrolidin-1-yl]-3-pyridyl]piperazin-1-yl]methyl]-6-methyl-morpholin-4-yl]-2-deuterio-quinoline-8-carbonitrile]	> 10	> 20	>476	>1250	>212	-30
C[C@@H]1CN(c2ccc(C#N)n3ncc(F)c23)C[C@H](CN2CCN(c3ccc(N4CC(C)(N)C4)nc3)CC2)O1 [Example 154, 4-[(2S,6R)-2-[[4-[6-(3-amino-3-methyl-azetidin-1-yl)-3-pyridyl]piperazin-1-yl]methyl]-6-methyl-morpholin-4-yl]-3-fluoro-pyrazolo[1,5-a]pyridine-7-carbonitrile]	> 10	> 20	>312	>200	>89	-10.5
C[C@@H]1CN(c2ccc(C#N)n3ncc(F)c23)C[C@H](CN2CC(c3ccc(N4CC(C)(N)C4)cc3)C2)O1 [Example 160, 4-[(2S,6R)-2-[[3-[4-(3-amino-3-methyl-azetidin-1-yl)phenyl]azetidin-1-yl]methyl]-6-methyl-morpholin-4-yl]-3-fluoro-pyrazolo[1,5-a]pyridine-7-carbonitrile]						17
[2H]c1ccc2c(N3C[C@H](CN4CCN(c5ccc(N[C@H]6CNC[C@H]6F)nc5)CC4)O[C@H](C)C3)ccc(C#N)c2n1 [Example 162, 2-deuterio-5-[(2S,6R)-2-[[4-[6-[[(3S,4R)-4-fluoropyrrolidin-3-yl]amino]-3-pyridyl]piperazin-1-yl]methyl]-6-methyl-morpholin-4-yl]quinoline-8-carbonitrile]						1
C[C@@H]1CN(c2ccc(C#N)n3nccc23)C[C@H](CN2CC(c3ccc(N4CC(C)(N)C4)cc3)C2)O1 [Example 163, 4-[(2S,6R)-2-[[3-[4-(3-amino-3-methyl-azetidin-1-yl)phenyl]azetidin-1-yl]methyl]-6-methyl-morpholin-4-yl]pyrazolo[1,5-a]pyridine-7-carbonitrile]						6.5
CO[C@@H]1CN(c2ccc(C3CN(C[C@H]4CN(c5ccc(C#N)n6ncc(F)c56)C[C@@H](C)O4)C3)cn2)C[C@H]1N [Example 164, 4-[(2S,6R)-2-[[3-[6-[(3R,4R)-3-amino-4-methoxy-pyrrolidin-1-yl]-3-pyridyl]azetidin-1-yl]methyl]-6-methyl-morpholin-4-yl]-3-fluoro-pyrazolo[1,5-a]pyridine-7-carbonitrile]						26
C[C@@H]1CN(c2ccc(C#N)n3ncc(F)c23)C[C@H](CN2CC(c3ccc(N4C[C@@H]5C[C@H]4CN5)nc3)C2)O1 [Example 165, 4-[(2S,6R)-2-[[3-[6-[(1S,4S)-2,5-diazabicyclo[2.2.1]heptan-2-yl]-3-pyridyl]azetidin-1-yl]methyl]-6-methyl-morpholin-4-yl]-3-fluoro-pyrazolo[1,5-a]pyridine-7-carbonitrile]						17.5
CO[C@@H]1CN(c2ccc(N3CCN(C[C@H]4CN(c5ccc(C#N)n6ncc(F)c56)C[C@@H](C)O4)CC3)cn2)C[C@H]1N [Example 166, 4-[(2S,6R)-2-[[4-[6-[(3R,4R)-3-amino-4-methoxy-pyrrolidin-1-yl]-3-pyridyl]piperazin-1-yl]methyl]-6-methyl-morpholin-4-yl]-3-fluoro-pyrazolo[1,5-a]pyridine-7-carbonitrile]	8	> 20	380	258	173	20
